The results in this text go back to US10125148B2, “Pyrazolopyrimidine macrocycles as inhibitors of human immunodeficiency virus replication” (priority 2014, dated 2018).

As usually defined, the EC50 is the midpoint of the concentration-response curve.

The experiment has as its system NL-RLuc virus. The experiment can be described thus: Inhibition of HIV replication (NL-RLuc luciferase reporter virus in MT-2 cells). It counts as cell-based. Conditions: Human immunodeficiency virus 1, MT2, 120 h. For orientation: In a reporter assay the amount or activity of a reporter protein is the signal.
As to `Cc1ccc2c(c1)-c1cccc(c1)-c1cc3nc(C)c([C@H](OC(C)(C)C)C(=O)O)c(n3n1)N1CCC(C)(CCC=CCC(C)O2)CC1` (stereo in doubt) [Example 20, (2S)-2-(tert-Butoxy)-2-[(22S)-4,17,22,28-tetramethyl-21-oxa-1,5,7,8-tetraazahexacyclo[26.2.2.1^6,9.1^10,14.0^2,7.0^15,20]tetratriaconta-2,4,6(34),8,10(33),11,13,15(20),16,18,24-undecaen-3-yl]acetic acid], the 50% effective concentration (EC50) was 133 nM.

Consider `Cc1nc2cc3nn2c(c1[C@H](OC(C)(C)C)C(=O)O)N1CCC(C)(CCC=CCC(C)Oc2ccc(C#N)cc2-c2cccc-3c2)CC1` (stereo in doubt) [Example 22, (2S)-2-(tert-Butoxy)-2-[(22S)-17-cyano-4,22,28-trimethyl-21-oxa-1,5,7,8-tetraazahexacyclo[26.2.2.1^6,9.1^10,14.0^2,7.0^15,20]tetratriaconta-2,4,6(34),8,10(33),11,13,15(20),16,18,24-undecaen-3-yl]acetic acid], for which the EC50 came to 13 nM.

`Cc1nc2cc3nn2c(c1[C@H](OC(C)(C)C)C(=O)O)N1CCC(C)(CCCCCC(C)Oc2ccc(C#N)cc2-c2cccc-3c2)CC1` (stereo in doubt) [Example 23, (2S)-2-(tert-Butoxy)-2-[(22S)-17-cyano-4,22,28-trimethyl-21-oxa-1,5,7,8-tetraazahexacyclo[26.2.2.1^6,9.1^10,14.0^2,7.0^15,20]tetratriaconta-2,4,6(34),8,10(33),11,13,15(20),16,18-decaen-3-yl]acetic acid]: the EC50 was determined as 24 nM.

Take `Cc1nc2cc3nn2c(c1[C@H](OC(C)(C)C)C(=O)O)N1CCC(C)(CCCCCC(C)Oc2ccc(C(N)=O)cc2-c2cccc-3c2)CC1` (stereo in doubt) [Example 24, (2S)-2-(tert-butoxy)-2-[(22S)-17-carbamoyl-4,22,28-trimethyl-21-oxa-1,5,7,8-tetraazahexacyclo[26.2.2.1^6,9.1^10,14.0^2,7.0^15,20]tetratriaconta-2,4,6(34),8,10(33),11,13,15(20),16,18-decaen-3-yl]acetic acid]: the midpoint of the response, the EC50, lay at 4 nM.

With `Cc1nc2cc3nn2c(c1[C@H](OC(C)(C)C)C(=O)O)N1CCC(C)(CC1)OCCCC[C@H](C)Oc1ccc(C(F)(F)F)cc1-c1cccc-3c1` [Example 1, (2S)-2-(tert-Butoxy)-2-[(22S)-4,22,28-trimethyl-17-(trifluoromethyl)-21,27-dioxa-1,5,7,8-tetraazahexacyclo[26.2.2.1^6,9.1^10,14.0^2,7.0^15,20]tetratriaconta-2,4,6(34),8,10(33),11,13,15(20),16,18-decaen-3-yl]acetic acid], the EC50 is 39 nM.

Turning to `Cc1nc2cc3nn2c(c1[C@H](OC(C)(C)C)C(=O)O)N1CCC(C)(CC1)OCCCC[C@H](C)Oc1cc(F)c(F)cc1-c1cccc-3c1` [Example 2, (2S)-2-(tert-Butoxy)-2-[(22S)-17,18-difluoro-4,22,28-trimethyl-21,27-dioxa-1,5,7,8-tetraazahexacyclo[26.2.2.1^6,9.1^10,14.0^2,7.0^15,20]tetratriaconta-2,4,6(34),8,10(33),11,13,15(20),16,18-decaen-3-yl]acetic acid], the EC50 was found to be 26 nM.

The compound `Cc1nc2cc3nn2c(c1[C@H](OC(C)(C)C)C(=O)O)N1CCC(C)(CC1)OCCCC[C@H](C)Oc1cc(F)cc(F)c1-c1cccc-3c1` [Example 3, (2S)-2-(tert-Butoxy)-2-[(22S)-16,18-difluoro-4,22,28-trimethyl-21,27-dioxa-1,5,7,8-tetraazahexacyclo[26.2.2.1^6,9.1^10,14.0^2,7.0^15,20]tetratriaconta-2,4,6(34),8,10(33),11,13,15(20),16,18-decaen-3-yl]acetic acid] returned an EC50 of 26 nM.

`Cc1cc(F)c2c(c1)O[C@@H](C)C/C=C/COC1(C)CCN(CC1)c1c([C@H](OC(C)(C)C)C(=O)O)c(C)nc3cc(nn13)-c1cccc-2c1` [Example 4, (2S)-2-(tert-Butoxy)-2-[(22S,24E)-16-fluoro-4,18,22,28-tetramethyl-21,27-dioxa-1,5,7,8-tetraazahexacyclo[26.2.2.1^6,9.1^10,14.0^2,7.0^15,20]tetratriaconta-2,4,6(34),8,10(33),11,13,15(20),16,18,24-undecaen-3-yl]acetic acid] yielded an EC50 of 23 nM.

As for `Cc1cc(F)c2c(c1)O[C@@H](C)CCCCOC1(C)CCN(CC1)c1c([C@H](OC(C)(C)C)C(=O)O)c(C)nc3cc(nn13)-c1cccc-2c1` [Example 5, (2S)-2-(tert-Butoxy)-2-[(22S)-16-fluoro-4,18,22,28-tetramethyl-21,27-dioxa-1,5,7,8-tetraazahexacyclo[26.2.2.1^6,9.1^10,14.0^2,7.0^15,20]tetratriaconta-2,4,6(34),8,10(33),11,13,15(20),16,18-decaen-3-yl]acetic acid], the midpoint of the response, the EC50, lay at 22 nM.

Compound `CCc1ccc2c(c1)-c1cccc(c1)-c1cc3nc(C)c([C@H](OC(C)(C)C)C(=O)O)c(n3n1)N1CCC(C)(CC1)OC/C=C/C[C@H](C)O2` [Example 6, (2S)-2-(tert-Butoxy)-2-[(22S)-17-ethyl-4,22,28-trimethyl-21,27-dioxa-1,5,7,8-tetraazahexacyclo[26.2.2.1^6,9.1^10,14.0^2,7.0^15,20]tetratriaconta-2,4,6(34),8,10(33),11,13,15(20),16,18,24-undecaen-3-yl]acetic acid] registered an EC50 of 31 nM.

In the case of `CCc1ccc2c(c1)-c1cccc(c1)-c1cc3nc(C)c([C@H](OC(C)(C)C)C(=O)O)c(n3n1)N1CCC(C)(CC1)OCCCC[C@H](C)O2` [Example 7, (2S)-2-(tert-Butoxy)-2-[(22S)-17-ethyl-4,22,28-trimethyl-21,27-dioxa-1,5,7,8-tetraazahexacyclo[26.2.2.1^6,9.1^10,14.0^2,7.0^15,20]tetratriaconta-2,4,6(34),8,10(33),11,13,15(20),16,18-decaen-3-yl]acetic acid], a half-maximal effect (EC50) was put at 29 nM.

Compound `COc1ccc2c(c1)-c1cccc(c1)-c1cc3nc(C)c([C@H](OC(C)(C)C)C(=O)O)c(n3n1)N1CCC(C)(CC1)OCCCC[C@H](C)O2` [Example 8, (2S)-2-(tert-Butoxy)-2-[(22S)-17-methoxy-4,22,28-trimethyl-21,27-dioxa-1,5,7,8-tetraazahexacyclo[26.2.2.1^6,9.1^10,14.0^2,7.0^15,20]tetratriaconta-2,4,6(34),8,10(33),11,13,15(20),16,18-decaen-3-yl]acetic acid] displayed an EC50 of 5 nM.

As to `Cc1nc2cc3nn2c(c1[C@H](OC(C)(C)C)C(=O)O)N1CCC(C)(CC1)OC/C=C/[C@H](C)Oc1cc(F)ccc1-c1cccc-3c1` [Example 9, (2S)-2-(tert-Butoxy)-2-[(23E)-18-fluoro-4,22,27-trimethyl-21,26-dioxa-1,5,7,8-tetraazahexacyclo[25.2.2.1^6,9.1^10,14.0^2,7.0^15,20]tritriaconta-2,4,6(33),8,10(32),11,13,15(20),16,18,23-undecaen-3-yl]acetic acid], the EC50 was 6 nM.

Consider `Cc1nc2cc3nn2c(c1[C@H](OC(C)(C)C)C(=O)O)N1CCC(C)(CC1)OCCC[C@H](C)Oc1cc(F)ccc1-c1cccc-3c1` [Example 10, (2S)-2-(tert-Butoxy)-2-[(22S)-18-fluoro-4,22,27-trimethyl-21,26-dioxa-1,5,7,8-tetraazahexacyclo[25.2.2.1^6,9.1^10,14.0^2,7.0^15,20]tritriaconta-2,4,6(33),8,10(32),11,13,15(20),16,18-decaen-3-yl]acetic acid], for which the EC50 was 11 nM.

In turn, `Cc1ccc2c(c1F)-c1cccc(c1)-c1cc3nc(C)c([C@H](OC(C)(C)C)C(=O)O)c(n3n1)N1CCC(C)(CC1)OC/C=C/[C@H](C)O2` [Example 11, (2S)-2-(tert-Butoxy)-2-[(22S,23E)-16-fluoro-4,17,22,27-tetramethyl-21,26-dioxa-1,5,7,8-tetraazahexacyclo[25.2.2.1^6,9.1^10,14.0^2,7.0^15,20]tritriaconta-2,4,6(33),8,10(32),11,13,15(20),16,18,23-undecaen-3-yl]acetic acid] registered a concentration for a half-maximal effect (EC50) of 3 nM.

As for `Cc1ccc2c(c1F)-c1cccc(c1)-c1cc3nc(C)c([C@H](OC(C)(C)C)C(=O)O)c(n3n1)N1CCC(C)(CC1)OCCC[C@H](C)O2` [Example 12, (2S)-2-(tert-Butoxy)-2-[(22S)-16-fluoro-4,17,22,27-tetramethyl-21,26-dioxa-1,5,7,8-tetraazahexacyclo[25.2.2.1^6,9.1^10,14.0^2,7.0^15,20]tritriaconta-2,4,6(33),8,10(32),11,13,15(20),16,18-decaen-3-yl]acetic acid], the EC50 was 3 nM.

In turn, `Cc1nc2cc3nn2c(c1[C@H](OC(C)(C)C)C(=O)O)N1CCC(C)(CC1)OC/C=C/[C@H](C)Oc1ccc(F)cc1-c1cccc-3c1` [Example 13, (2S)-2-(tert-Butoxy)-2-[(22S,23E)-17-fluoro-4,22,27-trimethyl-21,26-dioxa-1,5,7,8-tetraazahexacyclo[25.2.2.1^6,9.1^10,14.0^2,7.0^15,20]tritriaconta-2,4,6(33),8,10(32),11,13,15(20),16,18,23-undecaen-3-yl]acetic acid] gave a half-maximal effective concentration (EC50) of 4 nM.

For the compound `Cc1nc2cc3nn2c(c1[C@H](OC(C)(C)C)C(=O)O)N1CCC(C)(CC1)OCCC[C@H](C)Oc1ccc(F)cc1-c1cccc-3c1` [Example 14, (2S)-2-(tert-Butoxy)-2-[(22S)-17-fluoro-4,22,27-trimethyl-21,26-dioxa-1,5,7,8-tetraazahexacyclo[25.2.2.1^6,9.1^10,14.0^2,7.0^15,20]tritriaconta-2,4,6(33),8,10(32),11,13,15(20),16,18-decaen-3-yl]acetic acid], the response was half-maximal at 9 nM (EC50).

`Cc1ccc2c(c1)O[C@@H](C)/C=C/COC1(C)CCN(CC1)c1c([C@H](OC(C)(C)C)C(=O)O)c(C)nc3cc(nn13)-c1cccc-2c1` [Example 15, (2S)-2-(tert-Butoxy)-2-[(22S,23E)-4,18,22,27-tetramethyl-21,26-dioxa-1,5,7,8-tetraazahexacyclo[25.2.2.1^6,9.1^10,14.0^2,7.0^15,20]tritriaconta-2,4,6(33),8,10(32),11,13,15(20),16,18,23-undecaen-3-yl]acetic acid] registered an EC50 of 8 nM.
